Experiments:
FAP [1] = target: T1, FAP (Homo sapiens, UniProt Q12884); test: Affinity to FAP (IC50); assay type: biochemical; settings: for affinity to FAP, in words: compared with reference (F) and gold standard (G); for S = PREP IC50/FAP IC50: selectivity FAP over PREP; for SF = S relative to UAMC1110: selectivity factor relative to UAMC1110; for selectivity for FAP over PREP, in words: relative to (G) UAMC1110
T1 sequence (Q12884 1-760): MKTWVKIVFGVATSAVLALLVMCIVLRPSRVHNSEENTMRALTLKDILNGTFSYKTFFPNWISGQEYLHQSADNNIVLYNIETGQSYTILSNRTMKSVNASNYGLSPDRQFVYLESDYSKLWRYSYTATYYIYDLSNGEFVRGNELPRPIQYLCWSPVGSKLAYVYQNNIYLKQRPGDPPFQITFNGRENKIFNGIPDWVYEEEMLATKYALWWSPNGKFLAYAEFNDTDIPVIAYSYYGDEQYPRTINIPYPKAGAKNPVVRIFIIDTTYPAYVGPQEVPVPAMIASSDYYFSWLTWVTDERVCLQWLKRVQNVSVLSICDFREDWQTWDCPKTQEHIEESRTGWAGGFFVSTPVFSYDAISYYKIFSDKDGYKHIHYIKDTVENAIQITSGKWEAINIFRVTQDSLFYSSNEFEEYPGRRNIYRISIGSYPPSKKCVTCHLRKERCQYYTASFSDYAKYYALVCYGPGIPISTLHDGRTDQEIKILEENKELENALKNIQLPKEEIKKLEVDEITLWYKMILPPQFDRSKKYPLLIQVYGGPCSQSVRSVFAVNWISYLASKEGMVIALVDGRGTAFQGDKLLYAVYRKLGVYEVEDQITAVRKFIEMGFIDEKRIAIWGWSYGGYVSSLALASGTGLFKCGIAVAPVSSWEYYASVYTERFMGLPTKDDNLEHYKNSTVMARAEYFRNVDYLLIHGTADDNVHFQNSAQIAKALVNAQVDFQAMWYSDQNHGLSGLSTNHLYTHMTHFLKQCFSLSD

PREP = target: T2, PREP (Homo sapiens, UniProt P48147); test: Affinity to PREP (IC50); assay type: biochemical; settings: for binding to off-target PREP, in words: compared with reference (F) and (G)
T2 sequence (P48147 1-710): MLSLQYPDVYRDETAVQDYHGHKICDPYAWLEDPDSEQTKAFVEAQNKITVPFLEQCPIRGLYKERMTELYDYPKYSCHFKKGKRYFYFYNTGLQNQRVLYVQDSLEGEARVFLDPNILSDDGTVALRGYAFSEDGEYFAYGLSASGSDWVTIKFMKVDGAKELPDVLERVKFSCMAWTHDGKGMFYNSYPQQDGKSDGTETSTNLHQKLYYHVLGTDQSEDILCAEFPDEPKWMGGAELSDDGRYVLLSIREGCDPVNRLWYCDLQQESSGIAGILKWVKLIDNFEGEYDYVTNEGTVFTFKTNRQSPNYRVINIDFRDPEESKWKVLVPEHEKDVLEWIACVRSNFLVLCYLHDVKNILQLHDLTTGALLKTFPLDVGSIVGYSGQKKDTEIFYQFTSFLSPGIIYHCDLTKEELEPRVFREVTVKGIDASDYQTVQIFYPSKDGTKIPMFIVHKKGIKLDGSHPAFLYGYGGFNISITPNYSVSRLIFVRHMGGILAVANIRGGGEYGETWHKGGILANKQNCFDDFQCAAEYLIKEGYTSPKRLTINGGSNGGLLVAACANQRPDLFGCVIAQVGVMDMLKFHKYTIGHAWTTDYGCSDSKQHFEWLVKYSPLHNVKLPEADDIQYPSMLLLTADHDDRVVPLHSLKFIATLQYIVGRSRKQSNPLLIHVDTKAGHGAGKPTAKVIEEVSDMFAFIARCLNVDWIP
Excerpt: Beneath Table 1 presents measured affinities to FAP and PREP for the inventive precursor compounds 1-4 and reference compound 5 as well as the original FAP inhibitor UAMC1110 as the current gold standard.

DPP4 = DPP4 (Homo sapiens, UniProt P27487); settings: background statement; cited from earlier work
FAP [2] = target: T1, FAP; settings: background statement; cited from earlier work

DPP4, sequence (P27487 whole entry): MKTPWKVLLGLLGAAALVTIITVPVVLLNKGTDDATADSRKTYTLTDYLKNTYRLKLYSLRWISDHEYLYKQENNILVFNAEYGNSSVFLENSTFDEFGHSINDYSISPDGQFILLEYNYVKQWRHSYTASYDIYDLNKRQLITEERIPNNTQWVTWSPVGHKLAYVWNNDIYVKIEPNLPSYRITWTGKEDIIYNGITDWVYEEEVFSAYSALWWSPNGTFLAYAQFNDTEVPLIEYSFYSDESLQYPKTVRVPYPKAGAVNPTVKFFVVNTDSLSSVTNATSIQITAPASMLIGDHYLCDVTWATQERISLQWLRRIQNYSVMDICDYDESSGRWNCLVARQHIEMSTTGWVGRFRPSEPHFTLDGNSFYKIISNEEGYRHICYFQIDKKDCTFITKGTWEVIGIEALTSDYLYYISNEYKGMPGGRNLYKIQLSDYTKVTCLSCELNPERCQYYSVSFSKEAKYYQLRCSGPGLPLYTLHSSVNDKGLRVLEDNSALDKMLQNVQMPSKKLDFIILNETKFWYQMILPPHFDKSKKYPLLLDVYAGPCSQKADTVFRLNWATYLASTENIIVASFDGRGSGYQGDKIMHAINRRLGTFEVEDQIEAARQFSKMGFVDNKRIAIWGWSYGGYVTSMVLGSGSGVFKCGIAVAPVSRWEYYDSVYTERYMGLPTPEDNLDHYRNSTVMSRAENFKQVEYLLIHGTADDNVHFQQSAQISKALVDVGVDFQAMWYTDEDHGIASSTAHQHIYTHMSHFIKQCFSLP

SMILES	IC50 (FAP [1])	affinity to FAP, in words (FAP [1])	S = PREP IC50/FAP IC50 (FAP [1])	SF = S relative to UAMC1110 (FAP [1])	IC50 (PREP)	binding to off-target PREP, in words (PREP)	DPP4 affinity (DPP4)	FAP affinity (FAP [2])	selectivity for FAP over PREP, in words (FAP [1])
CN(CC(=O)O)C1(CCCCC(=O)N2CCN(CC(=O)NCCCCOc3ccc4nccc(C(=O)NCC(=O)N5CC(F)(F)C[C@H]5C#N)c4c3)CC2)CN(CC(=O)O)CCN(CC(=O)O)C1 [Compound (B), (S)-2,2′-(6-((carboxymethyl)(methyl)amino)-6-(5-(4-(2-((4-((4-((2-(2-cyano-4,4-difluoropyrrolidin-1-yl)-2-oxoethyl)carbamoyl)quinolin-6-yl)oxy)butyl)amino)-2-oxoethyl)piperazin-1-yl)-5-oxopentyl)-1,4-diazepane-1,4-diyl)diacetic Acid]	0.27 ± 0.01 nM	higher affinity to FAP than reference compound (F) and the UAMC1110 gold standard (G)	5.6 × 10^3	1.3	1500 ± 300 nM	comparable to (F) and (G)			
N#C[C@@H]1CC(F)(F)CN1C(=O)CNC(=O)c1ccnc2ccccc12 [(G), (S)-N-(2-(2-cyano-4,4-difluoropyrrolidin-1-yl)-2-oxoethyl)quinoline-4-carboxamide]							μM range	low nM range	
CN(CC(=O)O)C1(CCCCC(=O)NCCCCOc2ccc3nccc(C(=O)NCC(=O)N4CC(F)(F)C[C@H]4C#N)c3c2)CN(CC(=O)O)CCN(CC(=O)O)C1 [Compound (A), (S)-2,2′-(6-((carboxymethyl)(methyl)amino)-6-(5-((4-((4-((2-(2-cyano-4,4-difluoropyrrolidin-1-yl)-2-oxoethyl)carbamoyl)quinolin-6-yl)oxy)butyl)amino)-5-oxopentyl)-1,4-diazepane-1,4-diyl)diacetic Acid]	0.27 ± 0.02 nM	higher affinity to FAP than reference compound (F) and the UAMC1110 gold standard (G)	23.7 × 10^3	5.6	6400 ± 400 nM	reduced binding to off-target PREP compared to reference (F) and (G)			six times that of (G)
CN(CC(=O)NCCCCOc1ccc2nccc(C(=O)NCC(=O)N3CC(F)(F)C[C@H]3C#N)c2c1)[C@H]1CCN(C(=O)CCCCC2(N(C)CC(=O)O)CN(CC(=O)O)CCN(CC(=O)O)C2)C1 [(E), 2,2′-(6-((carboxymethyl)(methyl)amino)-6-(5-((S)-3-((2-((4-((4-((2-((S)-2-cyano-4,4-difluoropyrrolidin-1-yl)-2-oxoethyl)carbamoyl)quinolin-6-yl)oxy)butyl)amino)-2-oxoethyl)(methyl)amino)pyrrolidin-1-yl)-5-oxopentyl)-1,4-diazepane-1,4-diyl)diacetic Acid]	0.31 ± 0.02 nM	higher affinity to FAP than reference compound (F) and the UAMC1110 gold standard (G)	8.4 × 10^3	2.0	2600 ± 300 nM	reduced binding to off-target PREP compared to reference (F) and (G)			twice that of (G)
CN(CC(=O)O)C1(CCCCC(=O)N[C@H]2CCN(CC(=O)NCCCCOc3ccc4nccc(C(=O)NCC(=O)N5CC(F)(F)C[C@H]5C#N)c4c3)C2)CN(CC(=O)O)CCN(CC(=O)O)C1 [(D), 2,2′-(6-((carboxymethyl)(methyl)amino)-6-(5-(((S)-1-(2-((4-((4-((2-((S)-2-cyano-4,4-difluoropyrrolidin-1-yl)-2-oxoethyl)carbamoyl)quinolin-6-yl)oxy)butyl)amino)-2-oxoethyl)pyrrolidin-3-yl)amino)-5-oxopentyl)-1,4-diazepane-1,4-diyl)diacetic Acid]	0.28 ± 0.02 nM	higher affinity to FAP than reference compound (F) and the UAMC1110 gold standard (G)	11.8 × 10^3	2.8	3300 ± 200 nM	reduced binding to off-target PREP compared to reference (F) and (G)			three times higher than that of (G)

Source: US20250375540A1, “FIBROBLAST ACTIVATION PROTEIN TARGETING PRECURSOR AND RADIOTRACER” (ITM ONCOLOGICS GMBH, priority 2022, published 2025)
